melting point: 157 to 159 °C
SMILES: CC(C)C[C@H](NC(=O)[C@@H](NC(=O)COc1ccc2c(c1)Nc1ccccc1S2)C(C)(C)C)C(=O)N[C@H]1CCOC1O (stereo partly drawn) [Example 47, 3-methyl-N-[(10H-phenothiazin-2-yloxy)acetyl]-L-valyl-N^1-[(3S)-2-hydroxytetrahydrofuran-3-yl]-L-leucinamide]
